In article PMC5889476 (Biochimie Open, 2015):

T1: rFKBP22 (E. coli FKBP22) (Escherichia coli, UniProt P0A9L3, I65P)
T1 sequence (P0A9L3 1-206 I65P): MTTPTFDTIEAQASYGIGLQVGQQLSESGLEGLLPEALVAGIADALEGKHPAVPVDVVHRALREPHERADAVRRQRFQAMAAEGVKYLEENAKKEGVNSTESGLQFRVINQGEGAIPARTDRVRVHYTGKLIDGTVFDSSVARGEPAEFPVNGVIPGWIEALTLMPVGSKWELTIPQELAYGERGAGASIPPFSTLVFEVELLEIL

T2: rFKBP22 (E. coli FKBP22) (Escherichia coli, UniProt P0A9L3)
T2 sequence (P0A9L3 1-206): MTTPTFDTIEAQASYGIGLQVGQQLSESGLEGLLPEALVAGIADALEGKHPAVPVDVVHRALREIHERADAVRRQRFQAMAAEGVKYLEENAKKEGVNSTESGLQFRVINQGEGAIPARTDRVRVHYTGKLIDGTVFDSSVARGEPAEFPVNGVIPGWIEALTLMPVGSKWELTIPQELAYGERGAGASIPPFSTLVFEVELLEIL

T3: rFKBP22 (E. coli FKBP22) (Escherichia coli, UniProt P0A9L3, V72P)
T3 sequence (P0A9L3 1-206 V72P): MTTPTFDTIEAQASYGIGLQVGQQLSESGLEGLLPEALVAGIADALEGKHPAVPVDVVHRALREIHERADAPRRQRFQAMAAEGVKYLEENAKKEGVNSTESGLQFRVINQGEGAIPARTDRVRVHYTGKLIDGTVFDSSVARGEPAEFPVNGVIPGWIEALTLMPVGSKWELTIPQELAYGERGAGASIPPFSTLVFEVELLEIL

T4: rFKBP22 (E. coli FKBP22) (Escherichia coli, UniProt P0A9L3, A82P)
T4 sequence (P0A9L3 1-206 A82P): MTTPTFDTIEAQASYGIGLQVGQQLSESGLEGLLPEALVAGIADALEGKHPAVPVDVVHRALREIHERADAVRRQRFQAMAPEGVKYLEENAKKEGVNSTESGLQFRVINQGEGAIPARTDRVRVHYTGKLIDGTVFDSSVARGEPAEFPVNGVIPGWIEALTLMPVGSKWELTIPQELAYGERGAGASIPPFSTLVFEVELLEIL


Experiments:
rFKBP22 (E. coli FKBP22) [1] = target: T1, rFKBP22 (E. coli FKBP22); assay: tryptophan fluorescence quenching titration; type: binding
rFKBP22 (E. coli FKBP22) [2] = target: T2, rFKBP22 (E. coli FKBP22); assay: tryptophan fluorescence quenching titration; type: binding
rFKBP22 (E. coli FKBP22) [3] = target: T3, rFKBP22 (E. coli FKBP22); assay: tryptophan fluorescence quenching titration; type: binding
rFKBP22 (E. coli FKBP22) [4] = target: T4, rFKBP22 (E. coli FKBP22); assay: tryptophan fluorescence quenching titration; type: binding
cross-linking = target: the molecule itself; assay: cross-linking

| Kd (rFKBP22 (E. coli FKBP22) [1]) | Kd (rFKBP22 (E. coli FKBP22) [2]) | Kd (rFKBP22 (E. coli FKBP22) [3]) | Kd (rFKBP22 (E. coli FKBP22) [4]) | Molecule | stoichiometry N (cross-linking) |
| --- | --- | --- | --- | --- | --- |
| 5.06 ± 0.38 µM | 5.43 ± 0.57 µM | 5.51 ± 0.26 µM | 5.41 ± 0.31 µM | CO[C@H]1C[C@@H]2CC[C@@H](C)[C@@](O)(O2)C(=O)C(=O)N2CCCC[C@H]2C(=O)O[C@H]([C@H](C)C[C@@H]2CC[C@@H](O)[C@H](OC)C2)CC(=O)[C@H](C)/C=C(\C)[C@@H](O)[C@@H](OC)C(=O)[C@H](C)C[C@H](C)/C=C/C=C/C=C/1C [rapamycin] |  |
|  |  |  |  | V72P, a rFKBP22 variant with a Val to Pro substitution at position 72 in the helix α3 (enzyme, Escherichia coli, UniProt P0A9L3 1-206, looked up) MTTPTFDTIEAQASYGIGLQVGQQLSESGLEGLLPEALVAGIADALEGKHPAVPVDVVHRALREIHERADAPRRQRFQAMAAEGVKYLEENAKKEGVNSTESGLQFRVINQGEGAIPARTDRVRVHYTGKLIDGTVFDSSVARGEPAEFPVNGVIPGWIEALTLMPVGSKWELTIPQELAYGERGAGASIPPFSTLVFEVELLEIL | 2 |
|  |  |  |  | A82P, a rFKBP22 derivative harboring an Ala to Pro change at position 82 in the helix α3 (enzyme, Escherichia coli, UniProt P0A9L3 1-206, looked up) MTTPTFDTIEAQASYGIGLQVGQQLSESGLEGLLPEALVAGIADALEGKHPAVPVDVVHRALREIHERADAVRRQRFQAMAPEGVKYLEENAKKEGVNSTESGLQFRVINQGEGAIPARTDRVRVHYTGKLIDGTVFDSSVARGEPAEFPVNGVIPGWIEALTLMPVGSKWELTIPQELAYGERGAGASIPPFSTLVFEVELLEIL | 2 |
